Results published in US20100240589A1, “DIASTEREOMERIC PEPTIDES USEFUL AS INHIBITORS OF MEMBRANE PROTEIN ASSEMBLY” (YEDA RESEARCH AND DEVELOPMENT CO., LTD. AT THE WEIZMANN …, priority 2003, published 2010).

Tested on: CP362 bacteria overexpressing the Tar receptor (pNT201)
Assay: Swarm assay on TB semi-solid agar (chemotaxis)
Type: cell-based, Escherichia coli
Conditions: 20 μM peptide, 35° C.

Row | Sequence | expansion speed / chemotactic behavior of the bacteria
1 | KKKMVLGVFALLFLIGGSLKK [F/G mutant peptide] | no significant effect
2 | KKKMVLGVFALLQLISGSLKK [Tar-1 all-L, peptide corresponding to the transmembrane domain 1 of Tar, reference compound] | significantly reduced
